This is an account of results in patent publication US9956319B2, “Compositions useful as antibiofilm or antimicrobial agents and methods using same” (BAYLOR COLLEGE OF MEDICINE, priority 2012, dated 2018).

Broadly, the zone of inhibition is the extent of the growth-free halo in a diffusion test.

What all share (test): Zones of inhibition of impregnated catheter segments, modified Kirby-Bauer method
The test system of one experiment is MRSE. The class given is cell-based, Staphylococcus epidermidis. To be noted: for zone of inhibition at 100000 µg/mL: catheter impregnated with 100 mg/ml of each agent. How it is done: (§1) To evaluate the antimicrobial activity of central venous catheters treated with α-lipoic acid or its combination with gentamicin, segments of 7 French triple lumen polyurethane central venous catheters were impregnated with α-lipoic acid, gentamicin, or the combination of lipoic acid and gentamicin using the same patented method described in Example 1 with 50 mg/ml of each agent (for the final solution volume). After the impregnation process and drying, zones of inhibition were performed on one-centimeter segments according to a modified Kirby-Bauer method against MSSE, MRSE, MRSA, K. pneumoniae, E. coli, P. mirabilis, Pseudomonas aeruginosa, and Candida albicans. Each segment was half embedded in the center of a Muller-Hinton agar plate that had been previously inoculated with an individual organism. Prior to placing the catheter segments in agar, each organism was grown for 18 hours in TSB to a concentration of 0.5 McFarland (10^8 cfu/ml). A cotton swab was placed in the suspension and streaked across the surface of the Muller-Hinton agar plate to cover the entire plate. All plates were placed in a 37° C. incubator for 24 hours. Zones were measured in mm after the incubation period (Table 2).
(§2) To evaluate the antimicrobial activity of central venous catheters treated with α-lipoic acid or its combination with doxycycline, segments of 7 French triple lumen polyurethane central venous catheters were impregnated with doxycycline or the combinations of α-lipoic acid and doxycycline using the same patented method described in Example 1 (U.S. Pat. No. 6,589,591) with 50 mg/ml of each agent (for the final solution volume). After the impregnation process and drying, zones of inhibition were performed on one-centimeter segments according to a modified Kirby-Bauer method against MSSE, MRSE, MRSA, K. pneumoniae, E. coli, P. aeruginosa, P. mirabilis, and C. albicans as described in Example 2. Zones of inhibition were measured in mm after the incubation period (Table 3).
(§3) To evaluate the antimicrobial activity of central venous catheters treated with lipoamide or its combination with levofloxacin, segments of 7 French triple lumen polyurethane central venous catheters were impregnated with levofloxacin or the combinations of lipoamide and levofloxacin using the same patented method described in Example 1 (U.S. Pat. No. 6,589,591) with 100 mg/ml (final solution volume) of each agent. After the impregnation process and drying, zones of inhibition were performed on one-centimeter segments according to a modified Kirby-Bauer method against MSSE, MRSE, MRSA, vancomycin-resistant Enterococcus (VRE), K. pneumoniae, E. coli, P. aeruginosa, P. mirabilis, and C. albicans as described in Example 2. Zones of inhibition were measured in mm after the incubation period (Table 4).
as §3, with “doxycycline,” for “levofloxacin,”, “doxycycline” for “levofloxacin”, “5).” for “4).”
(§4) To evaluate the antimicrobial activity of central venous catheters treated with dihydrolipoic acid, segments of 7 French triple lumen polyurethane central venous catheters were impregnated with dihydrolipoic acid using the same patented method described in Example 1 (U.S. Pat. No. 6,589,591) with 25 mg/ml (final solution volume) of the agent. […]

Another experiment concerns MSSE. The format is cell-based, Staphylococcus epidermidis. As to conditions: for zone of inhibition at 100000 µg/mL: catheter impregnated with 100 mg/ml of each agent. As for the experimental part: as §1, §2, §3
as §3, with “doxycycline,” for “levofloxacin,”, “doxycycline” for “levofloxacin”, “5).” for “4).”
as §4

The test system of the next experiment is MRSA. The class given is cell-based, Staphylococcus aureus. As to conditions: for zone of inhibition at 100000 µg/mL: catheter impregnated with 100 mg/ml of each agent. How it is done:
as §1, §2, §3
as §3, with “doxycycline,” for “levofloxacin,”, “doxycycline” for “levofloxacin”, “5).” for “4).”
as §4

In experiment [1] the test system is vancomycin-resistant Enterococcus (VRE). The class given is cell-based. As to conditions: Enterococcus, catheter impregnated with 100 mg/ml of each agent. How it is done:
as §1
To evaluate the antimicrobial activity of central venous catheters treated with lipoamide or its combination with levofloxacin, segments of 7 French triple lumen polyurethane central venous catheters were impregnated with levofloxacin or the combinations of lipoamide and levofloxacin using the same patented method described in Example 1 (U.S. Pat. No. 6,589,591) with 100 mg/ml (final solution volume) of each agent. […] Zones of inhibition were measured in mm after the incubation period (Table 4).
To evaluate the antimicrobial activity of central venous catheters treated with lipoamide or its combination with doxycycline, segments of 7 French triple lumen polyurethane central venous catheters were impregnated with doxycycline or the combinations of lipoamide and doxycycline using the same patented method described in Example 1 (U.S. Pat. No. 6,589,591) with 100 mg/ml (final solution volume) of each agent. […] Zones of inhibition were measured in mm after the incubation period (Table 5).
To evaluate the antimicrobial activity of central venous catheters treated with dihydrolipoic acid, segments of 7 French triple lumen polyurethane central venous catheters were impregnated with dihydrolipoic acid using the same patented method described in Example 1 (U.S. Pat. No. 6,589,591) with 25 mg/ml (final solution volume) of the agent. […] Zones of inhibition were measured in mm after the incubation period (Table 6).

For a further experiment, the system named is Candida albicans. The format is cell-based. As to conditions: for zone of inhibition at 100000 µg/mL: catheter impregnated with 100 mg/ml of each agent. As for the experimental part: as §1, §2, §3
as §3, with “doxycycline,” for “levofloxacin,”, “doxycycline” for “levofloxacin”, “5).” for “4).”
as §4

The next experiment relates to Escherichia coli. The format is cell-based. To be noted: for zone of inhibition at 100000 µg/mL: catheter impregnated with 100 mg/ml of each agent. How it is done:
as §1, §2, §3
as §3, with “doxycycline,” for “levofloxacin,”, “doxycycline” for “levofloxacin”, “5).” for “4).”
as §4

The subject of a further experiment is Klebsiella pneumoniae II. The format is cell-based. As to conditions: for zone of inhibition at 100000 µg/mL: Klebsiella pneumoniae II, catheter impregnated with 100 mg/ml of each agent. How it is done:
as §1, §2, §3
as §3, with “doxycycline,” for “levofloxacin,”, “doxycycline” for “levofloxacin”, “5).” for “4).”
as §4

For a further experiment, the system named is Klebsiella pneumoniae I. The class given is cell-based. As to conditions: for zone of inhibition at 100000 µg/mL: catheter impregnated with 100 mg/ml of each agent. As for the experimental part: as §1, §2, §3
as §3, with “doxycycline,” for “levofloxacin,”, “doxycycline” for “levofloxacin”, “5).” for “4).”
as §4

Another experiment has as its system Proteus mirabilis. The format is cell-based. As to conditions: for zone of inhibition at 100000 µg/mL: catheter impregnated with 100 mg/ml of each agent. How it is done:
as §1, §2, §3
as §3, with “doxycycline,” for “levofloxacin,”, “doxycycline” for “levofloxacin”, “5).” for “4).”
as §4

For another experiment, the system named is Pseudomonas aeruginosa. The class given is cell-based. To be noted: Pseudomonas aeruginosa; for zone of inhibition at 100000 µg/mL: Pseudomonas aeroginosa, catheter impregnated with 100 mg/ml of each agent. As for the experimental part:
as §1, §2, §3
as §3, with “doxycycline,” for “levofloxacin,”, “doxycycline” for “levofloxacin”, “5).” for “4).”
as §4

Setting [2] is: catheter impregnated with 50 mg/ml of each agent, 37° C., 24 hours.
The mark [3] stands for this setting: Staphylococcus epidermidis, catheter impregnated with 50 mg/ml of each agent, 37° C., 24 hours.

For the molecule `C[C@H]1COc2c(N3CCN(C)CC3)c(F)cc3c(=O)c(C(=O)O)cn1c23` [Levofloxacin, levofloxacin], the zone of inhibition at 100000 µg/mL with MRSE (Staphylococcus epidermidis) was determined as 31 mm; in the experiment on MSSE (Staphylococcus epidermidis), 30 mm; in the experiment on MRSA (Staphylococcus aureus), 21 mm; in [1] it was 7 mm; with Candida albicans, 0 mm; in the experiment on Escherichia coli, 27 mm. Also, the zone of inhibition at 100000 µg/mL turned out to be 18 mm in the experiment on Klebsiella pneumoniae II, 24 mm with Klebsiella pneumoniae I, 31 mm with Proteus mirabilis and 19 mm with Pseudomonas aeruginosa.

gentamicin: the Zones of inhibition is given as 22 mm in the experiment with MRSE (setting [2]); 21 mm in the experiment on MSSE (setting [2]); 15 mm with MRSA (setting [2]); 0 mm in the experiment with Candida albicans (setting [2]); 12 mm with Escherichia coli (setting [2]); 0 mm in the experiment on Klebsiella pneumoniae II (Klebsielle pneuminiae II, catheter impregnated with 50 mg/ml of each agent, 37° C., 24 hours). Moreover, the Zones of inhibition in the experiment with Klebsiella pneumoniae I (setting [2]) was determined as 13 mm; in the experiment with Proteus mirabilis (setting [2]), 14 mm; with Pseudomonas aeruginosa (setting [2]), 5 mm.

As for `C[C@H]1c2cccc(O)c2C(=O)C2=C(O)[C@]3(O)C(=O)C(C(N)=O)=C(O)[C@@H](N(C)C)[C@@H]3[C@@H](O)[C@@H]21` [Doxycycline, doxycycline], the zone of inhibition at 50000 µg/mL in the experiment on MRSE (setting [3]) was found to be 35 mm; in the experiment with MSSE (setting [3]) it was 21 mm; with MRSA (Staphylococcus aureus, catheter impregnated with 50 mg/ml of each agent, 37° C., 24 hours), 22 mm; with Candida albicans (setting [2]), 13 mm; in the experiment on Escherichia coli (setting [2]), 24 mm; in the experiment on Klebsiella pneumoniae II (Klebsiella pneumoniae, Klebsielle pneuminiae II, catheter impregnated with 50 mg/ml of each agent, 37° C., 24 hours), 13 mm. Further, the figures for the zone of inhibition at 50000 µg/mL in the experiment on Klebsiella pneumoniae I (setting [2]), in the experiment with Proteus mirabilis (setting [2]) and with Pseudomonas aeruginosa (setting [2]) were 17 mm, 4 mm and 13 mm, respectively. Besides, the zone of inhibition at 100000 µg/mL in the experiment with MRSE (Staphylococcus epidermidis) came out at 38 mm; in the experiment with MSSE (Staphylococcus epidermidis) it was 20 mm; in the experiment on MRSA (Staphylococcus aureus), 19 mm; in experiment [1] it was 30 mm; in the experiment on Candida albicans, 5 mm; with Escherichia coli, 22 mm. The zone of inhibition at 100000 µg/mL is 7 mm in the experiment on Klebsiella pneumoniae II, 19 mm with Klebsiella pneumoniae I, 0 mm in the experiment on Proteus mirabilis and 11 mm in the experiment on Pseudomonas aeruginosa.
